Assay: xn = mol fraction of the nth substance listed
Conditions: 101 kPa

With `CCCC[n+]1ccn(C)c1.F[B-](F)(F)F` + O the viscosity (293.15 K, x2 = 0) was 133.5 mPa·s, the viscosity (293.15 K, x2 = 0.1135) was 81.4 mPa·s and the viscosity (293.15 K, x2 = 0.2063) was 56.3 mPa·s. It also gave a viscosity (293.15 K, x2 = 0.2802) of 42 mPa·s, a viscosity (298.15 K, x2 = 0.034) of 88.8 mPa·s and a viscosity (298.15 K, x2 = 0.2063) of 45.4 mPa·s. It also gave a viscosity (298.15 K, x2 = 0.2802) of 34.4 mPa·s, a viscosity (303.15 K, x2 = 0) of 78.8 mPa·s and a viscosity (303.15 K, x2 = 0.034) of 69.8 mPa·s. For the same compound, the viscosity (303.15 K, x2 = 0.1135) was 51.7 mPa·s, the viscosity (303.15 K, x2 = 0.2063) was 37.2 mPa·s and the viscosity (303.15 K, x2 = 0.2802) was 28.7 mPa·s. For the same compound, the viscosity (303.15 K, x2 = 0.3977) was 19 mPa·s, the viscosity (313.15 K, x2 = 0) was 50.52 mPa·s and the viscosity (313.15 K, x2 = 0.034) was 45.58 mPa·s. The viscosity (313.15 K, x2 = 0.0615) was 41.37 mPa·s, the viscosity (313.15 K, x2 = 0.2063) was 26.09 mPa·s and the viscosity (313.15 K, x2 = 0.2802) was 20.59 mPa·s. For the same compound, the viscosity (313.15 K, x2 = 0.3977) was 14.1 mPa·s, the viscosity (323.15 K, x2 = 0) was 34.52 mPa·s and the viscosity (323.15 K, x2 = 0.034) was 31.56 mPa·s. The viscosity (323.15 K, x2 = 0.1135) was 25.01 mPa·s, the viscosity (323.15 K, x2 = 0.2063) was 19.17 mPa·s and the viscosity (323.15 K, x2 = 0.2802) was 15.49 mPa·s. For the same compound, the viscosity (323.15 K, x2 = 0.3977) was 10.89 mPa·s, the viscosity (333.15 K, x2 = 0.034) was 22.98 mPa·s and the viscosity (333.15 K, x2 = 0.0615) was 21.4 mPa·s. It also gave a viscosity (333.15 K, x2 = 0.2063) of 14.66 mPa·s, a viscosity (333.15 K, x2 = 0.2802) of 12.06 mPa·s and a viscosity (333.15 K, x2 = 0.3977) of 8.67 mPa·s. For the same compound, the viscosity (343.15 K, x2 = 0) was 18.69 mPa·s, the viscosity (343.15 K, x2 = 0.034) was 17.44 mPa·s and the viscosity (343.15 K, x2 = 0.0615) was 16.34 mPa·s. For the same compound, the viscosity (343.15 K, x2 = 0.1135) was 14.45 mPa·s, the viscosity (343.15 K, x2 = 0.2063) was 11.59 mPa·s and the viscosity (343.15 K, x2 = 0.2802) was 9.64 mPa·s. It also gave a viscosity (343.15 K, x2 = 0.3977) of 7.11 mPa·s, a viscosity (353.15 K, x2 = 0) of 14.54 mPa·s and a viscosity (353.15 K, x2 = 0.034) of 13.67 mPa·s. The viscosity (353.15 K, x2 = 0.0615) was 12.87 mPa·s, the viscosity (353.15 K, x2 = 0.2063) was 9.4 mPa·s and the viscosity (353.15 K, x2 = 0.2802) was 7.91 mPa·s. It also gave a viscosity (363.15 K, x2 = 0) of 11.64 mPa·s, a viscosity (363.15 K, x2 = 0.1135) of 9.39 mPa·s and a viscosity (363.15 K, x2 = 0.2063) of 7.79 mPa·s. For the same compound, the viscosity (363.15 K, x2 = 0.3977) was 5.16 mPa·s, the viscosity (373.15 K, x2 = 0.034) was 9.06 mPa·s and the viscosity (373.15 K, x2 = 0.1135) was 7.83 mPa·s. For the same compound, the viscosity (373.15 K, x2 = 0.2063) was 6.6 mPa·s, the viscosity (373.15 K, x2 = 0.2802) was 5.71 mPa·s and the viscosity (373.15 K, x2 = 0.3977) was 4.54 mPa·s.

From a compilation of properties of binary mixtures (doi:10.1016/j.molliq.2016.08.084)
